Assay results as given in patent US20230233519A1, “COMBINATION THERAPIES” (MEI Pharma, Inc., priority 2020, published 2023).

How the values were obtained:
MOLM-13 AML cells [1] = experiment: Annexin V-FITC/PI apoptosis flow cytometry, MOLM-13; format: cell-based, human; conditions: MOLM-13, 24 h, clinically achievable concentrations
Protocol: (§1) AML cell lines used as described herein include MOLM-13, MV4-11, and THP-1. MOLM-13 cells are purchased from AddexBio (San Diego, Calif., USA). MV4-11 and THP-1 cell lines are purchased from the American Type Culture Collection (Manassas, Va., USA). The cell lines are cultured in RPMI 1640 with 10-20% fetal bovine serum (Thermo Fisher Scientific, Waltham, Mass., USA), 2 mM L-glutamine, 100 U/mL penicillin, and 100 μg/mL streptomycin. All cells are cultured in a 37° C. humidified atmosphere containing 5% CO2/95% air. The cell lines are authenticated at the Genomics Core at Karmanos Cancer Institute using the Power-Plex 16 System from Promega (Madison, Wis., USA). […]
(§2) Human adult AML cell lines (MOLM-13), human childhood AML cell lines (MV4-11 and THP-1), and cytarabine-resistant (araC-R) acute monocytic leukemia (AMoL) cell lines (U937) are treated with venetoclax and d-cis-3-(4-hydroxyphenyl)-4-(4-hydroxyphenyl)-8-methylchroman-7-ol (Compound A), alone or in combination, and are subject to flow cytometry analysis using Annexin V-fluorescein isothiocyanate (FITC)/propidium iodide (PI) Apoptosis Kit (Beckman Coulter, Brea, Calif.). Results are expressed as percent Annexin V-positive (Annexin V+) cells. […] The extent and direction of the antileukemic interaction between venetoclax and Compound A is determined by calculating the combination index (CI). […]

[2] = test system: MV4-11 childhood AML cells; experiment: Annexin V-FITC/PI apoptosis flow cytometry, MV4-11; format: cell-based, human; conditions: MV4-11, 24 h, clinically achievable concentrations
Protocol: as §1, §2

[3] = test system: THP-1 childhood AML cells; experiment: Annexin V-FITC/PI apoptosis flow cytometry, THP-1; format: cell-based, human; conditions: THP-1, 24 h, clinically achievable concentrations
Protocol: as §1, §2

[4] = test system: cytarabine resistant (araC-R) U937 acute monocytic leukemia (AMoL) cells; experiment: Annexin V-FITC/PI apoptosis flow cytometry, araC-R U937; format: cell-based; conditions: araC-R U937, 24 h, clinically achievable concentrations
Protocol: Human adult AML cell lines (MOLM-13), human childhood AML cell lines (MV4-11 and THP-1), and cytarabine-resistant (araC-R) acute monocytic leukemia (AMoL) cell lines (U937) are treated with venetoclax and d-cis-3-(4-hydroxyphenyl)-4-(4-hydroxyphenyl)-8-methylchroman-7-ol (Compound A), alone or in combination, and are subject to flow cytometry analysis using Annexin V-fluorescein isothiocyanate (FITC)/propidium iodide (PI) Apoptosis Kit (Beckman Coulter, Brea, Calif.). Results are expressed as percent Annexin V-positive (Annexin V+) cells. For the AML/AMoL cell lines, experiments are performed three independent times in triplicate, and the data presented are from one representative experiment. The extent and direction of the antileukemic interaction between venetoclax and Compound A is determined by calculating the combination index (CI). CI<1 indicates synergistic effects, CI=1 indicates additive effects, and CI>1 indicates antagonistic effects. ***indicates p<0.001 compared to control.

MOLM-13 AML cells [5] = experiment: Viable cells (annexin V negative and PI negative) by flow cytometry, MOLM-13; format: cell-based, human; conditions: MOLM-13, 24 hr, clinically achievable concentrations
Protocol: (§3) FIG. 2A depicts the percentage of viable MOLM-13 AML cells following treatment of MOLM-13 AML cell lines with venetoclax (VEN) and d-cis-3-(4-hydroxyphenyl)-4-(4-hydroxyphenyl)-8-methylchroman-7-ol (Compound A), alone or in combination, for 24 h and then subjected to Annexin V-FITC/PI staining and flow cytometry analysis. Viable cells (annexin V negative and PI negative) were gated. Viable cell counts from no drug treatment controls were set at 100%, and the rest of the samples were normalized to the no drug treatment controls. The data were presented as mean percent of viable cells from triplicates with standard errors.
AML cell lines used as described herein include MOLM-13, MV4-11, and THP-1. […]
as §2

[6] = test system: MV4-11 childhood AML cells; experiment: Viable cells (annexin V negative and PI negative) by flow cytometry, MV4-11; format: cell-based, human; conditions: MV4-11, 24 hr, clinically achievable concentrations
Protocol: as §3, with “FIG. 2B” for “FIG. 2A”, “viable MV4-11 childhood” for “viable MOLM-13”, “of MV4-11 childhood” for “of MOLM-13”, “24 h.” for “24 h”, “errors. […]” for “errors.”
as §2

[7] = test system: THP-1 childhood AML cells; experiment: Viable cells (annexin V negative and PI negative) by flow cytometry, THP-1; format: cell-based, human; conditions: THP-1, 24 hr, clinically achievable concentrations
Protocol: as §3, with “FIG. 2C” for “FIG. 2A”, “viable THP-1 childhood” for “viable MOLM-13”, “of THP-1 childhood” for “of MOLM-13”, “24 h.” for “24 h”, “errors. […]” for “errors.”
as §2

## Cc1c(O)ccc2c1OC[C@@H](c1ccc(O)cc1)[C@H]2c1ccc(O)cc1 [Compound A, d-cis-3-(4-hydroxyphenyl)-4-(4-hydroxyphenyl)-8-methylchroman-7-ol]
MOLM-13 AML cells [1]
  apoptosis (Annexin V+ cells): high levels of apoptosis
[2]
  apoptosis (Annexin V+ cells): high levels of apoptosis
[3]
  apoptosis (Annexin V+ cells): high levels of apoptosis
[4]
  apoptosis (Annexin V+ cells): high levels of apoptosis
MOLM-13 AML cells [5]
  viability (percent of viable cells vs no drug control): dose-dependent decrease in viability
[6]
  viability (percent of viable cells vs no drug control): dose-dependent decrease in viability
[7]
  viability (percent of viable cells vs no drug control): dose-dependent decrease in viability
